Marks after values point to notes of the source that are not given here.
What was measured:
[1] = molecular target: platelet activating factor receptor (PAFR) (Homo sapiens, UniProt P25105); settings: cited from earlier work
[2] = cited from earlier work
isolated rat hearts [3] = assay: Reperfusion-induced arrhythmias (VF, VT) in isolated hearts of orally treated rats, 30 min global ischemia and 2 hours reperfusion; type: in vivo; settings: control 92%
Procedure: (§1) Male Sprague-Dawley rats were used for all studies. Rats were anesthetized with intraperitoneal pentobarbital sodium (60 mg/kg body weight) and then given intravenous heparin (500 IU/kg). After thoracotomy, the heart was excised and placed in ice cold perfusion buffer. Immediately after preparation, the aorta was cannulated, and the heart was perfused according to Langendorf method for a 5-min washout period at a constant perfusion pressure equivalent to 100 cm of water (10 kPa). The perfusion medium consisted of a modified Krebs-Henseleit bicarbonate buffer: 118 mM NaCl, 4.7 mM KCl, 1.7 mM CaCl2, 25 mM NaHCO3, 0.36 mM KH2PO4, 1.2 mM MgSO4, and 10 mM glucose. The left atrium was cannulated and the Langendorff system was switched to the working mode with a left atrial filling pressure of 17 cm of buffer (1.7 kPa) and aortic afterload pressure of 100 cm (10 kPa) of buffer. Aortic flow was measured by a calibrated rotameter, and coronary flow rate was measured by a timed collection of the coronary perfusate that dripped from the heart. After 10 min aerobic perfusion of the heart, the atrial inflow and aortic outflow lines were clamped at a point close to the origin of the aortic cannula. Reperfusion was initiated by unclamping the atrial inflow and aortic outflow lines. […] An epicardial ECG was recorded by a polygraph throughout the experimental period by two silver electrodes attached directly to the heart. ECGs were analyzed to determine the incidence of ventricular fibrillation (VF) and ventricular tachycardia (VT) and whether VF was non-sustained (spontaneously reverting to regular rhythm) or sustained (persisting through the first 3 min of reperfusion). After 3 min of ventricular fibrillation (sustained VF) hearts were defibrillated and myocardial function was recorded. The heart was considered to be in VF if an irregular undulating baseline was apparent on the ECG. […] In each instance, VT spontaneously switched to sinus rhythm or VF, therefore VT was considered non-sustained. The heart was considered to be in sinus rhythm if normal sinus complexes occurring in a regular rhythm were apparent on the ECG. Before ischemia and during reperfusion, heart rate (HR), coronary flow (CF) and aortic flow (AF) rates were registered. Left ventricular developed pressure (LVDP) which was defined as the difference between left ventricular systolic and end-diastolic pressure, and the first derivative of LVDP (+LVdp/dtmax) were also recorded (Experimetria, UK) by the insertion of a catheter into the left ventricle via the left atrium and mitral valve. […] Cardiac function data (HR, CF, AF, LVDP, and LVdp/dtmax), were expressed as the mean±SEM. One-way analysis of variance was first carried out, to test for any differences between the mean values of all groups. If differences were established, the values of the control, drug-free group were compared with those of the drug treated groups by a two-tailed t-test with the Bonferroni correction (Wallenstein et al., 1980, Circ. Res. 47:1-9). An analogue procedure was followed for distribution of discrete variables such as the incidence of VF and VT. An overall chi-square test for a 2×n table was constructed followed by a sequence of 2×2 chi-square tests to compare individual groups. A change of p<0.05 was considered significant.

isolated rat hearts [4] = assay: Cardiac function of isolated working hearts of orally treated rats, 30 min global ischemia followed by reperfusion; type: ex vivo
Procedure: as §1

[5] = tested on: cAMP-specific phosphodiesterase; settings: cited from earlier work
[6] = Schussler et al. 1995; cited from earlier work
[7] = FK506 1 mg/kg/day oral 10 days, after 30-min reperfusion
[8] = FK506 1 mg/kg/day oral 10 days, after 60-min reperfusion
[9] = FK506 1 mg/kg/day oral 10 days, after 120-min reperfusion
[10] = FK506 5 mg/kg/day oral 10 days, after 30-min reperfusion
[11] = FK506 5 mg/kg/day oral 10 days, after 60-min reperfusion
[12] = FK506 5 mg/kg/day oral 10 days, after 120-min reperfusion
[13] = FK506 10 mg/kg/day oral 10 days, after 30-min reperfusion
[14] = FK506 10 mg/kg/day oral 10 days, after 60-min reperfusion
[15] = FK506 10 mg/kg/day oral 10 days, after 120-min reperfusion
[16] = FK506 20 mg/kg/day oral 10 days, after 30-min reperfusion
[17] = FK506 20 mg/kg/day oral 10 days, after 60-min reperfusion
[18] = FK506 20 mg/kg/day oral 10 days, after 120-min reperfusion
[19] = FK506 40 mg/kg/day oral 10 days, after 30-min reperfusion
[20] = FK506 40 mg/kg/day oral 10 days, after 60-min reperfusion
[21] = FK506 40 mg/kg/day oral 10 days, after 120-min reperfusion

Sequence of platelet activating factor receptor (PAFR) (P25105 whole entry, species assumed): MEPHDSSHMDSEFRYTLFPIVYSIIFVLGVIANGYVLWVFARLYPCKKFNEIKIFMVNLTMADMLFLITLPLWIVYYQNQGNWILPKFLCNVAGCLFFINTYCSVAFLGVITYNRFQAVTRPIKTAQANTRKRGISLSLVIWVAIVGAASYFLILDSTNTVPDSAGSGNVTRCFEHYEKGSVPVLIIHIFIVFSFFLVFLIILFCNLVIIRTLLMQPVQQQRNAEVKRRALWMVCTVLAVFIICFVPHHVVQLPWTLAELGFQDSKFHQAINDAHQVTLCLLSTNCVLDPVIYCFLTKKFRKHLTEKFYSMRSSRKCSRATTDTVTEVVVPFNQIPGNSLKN

## COc1ccc(NC(=S)N2CCc3c(sc4c3C(c3ccccc3Cl)=NCc3nnc(C)n3-4)C2)cc1 [BN 50730]
[1]; more potent than BN52021
  PAFR antagonistic activity compared to BN52021: up to several 10-fold

## C=CC[C@@H]1/C=C(\C)C[C@H](C)C[C@H](OC)[C@H]2O[C@@](O)(C(=O)C(=O)N3CCCC[C@H]3C(=O)O[C@H](/C(C)=C/[C@@H]3CC[C@@H](O)[C@H](OC)C3)[C@H](C)[C@@H](O)CC1=O)[C@H](C)C[C@@H]2OC [FK506, tacrolimus]
[2]; continuous intravenous infusion, severe acute GVHD
  plasma concentrations: 25 to 35 ng/mL
[2]; low doses (0.1 mg/kg or less)
  blood levels: ~10 ng/mL
  fraction of treated patients with greater than 1 year graft survival: > 70%
Isolated rat hearts [3]; FK506 1 mg/kg/day oral 10 days
  incidence of reperfusion-induced total (irreversible plus reversible) VF: 92%
Isolated rat hearts [3]; FK506 5 mg/kg/day oral 10 days
  incidence of reperfusion-induced total (irreversible plus reversible) VF: 83%
Isolated rat hearts [3]; FK506 10 mg/kg/day oral 10 days
  incidence of reperfusion-induced total (irreversible plus reversible) VF: 67%
Isolated rat hearts [3]; FK506 20 mg/kg/day oral 10 days
  incidence of reperfusion-induced total (irreversible plus reversible) VF: 33%
Isolated rat hearts [3]; FK506 40 mg/kg/day oral 10 days
  incidence of reperfusion-induced total (irreversible plus reversible) VF: 25%
Isolated rat hearts [4]; [7]
  +dP/dtmax: 422 ± 28 kPa/s
  AF (aortic flow): 10.6 ± 0.4 mL/min
  CF (coronary flow): 18.2 ± 1.0 mL/min
  HR (heart rate): 315 ± 9 beats/min
  LVDP (left ventricular developed pressure): 10.7 ± 0.6 kPa
Isolated rat hearts [4]; [8]
  +dP/dtmax: 447 ± 26 kPa/s
  CF (coronary flow): 16.9 ± 0.9 mL/min
  HR (heart rate): 306 ± 8 beats/min
  LVDP (left ventricular developed pressure): 11.9 ± 0.5 kPa
Isolated rat hearts [4]; FK506 1 mg/kg/day oral 10 days, after 60-min reperfusion, 1 mg/kg/day
  AF (aortic flow): 10.9 ± 1.8 mL/min
Isolated rat hearts [4]; FK506 1 mg/kg/day oral 10 days, after 60-min reperfusion, listed as FK 506, 1 mg/kg/day
  AF (aortic flow): 10.9 ± 0.6 mL/min
Isolated rat hearts [4]; [9]
  +dP/dtmax: 432 ± 17 kPa/s
  AF (aortic flow): 10.1 ± 0.6 mL/min
  CF (coronary flow): 17.5 ± 0.7 mL/min
  HR (heart rate): 302 ± 9 beats/min
  LVDP (left ventricular developed pressure): 11.2 ± 0.3 kPa
Isolated rat hearts [4]; [10]
  +dP/dtmax: 430 ± 34 kPa/s
  AF (aortic flow): 12.0 ± 0.9 mL/min
  CF (coronary flow): 18.0 ± 1.1 mL/min
  HR (heart rate): 298 ± 7 beats/min
  LVDP (left ventricular developed pressure): 11.0 ± 0.4 kPa
Isolated rat hearts [4]; [11]
  +dP/dtmax: 463 ± 23 kPa/s
  AF (aortic flow): 13.3 ± 1.0 mL/min
  CF (coronary flow): 18.4 ± 0.7 mL/min
  HR (heart rate): 282 ± 7 beats/min
  LVDP (left ventricular developed pressure): 12.0 ± 0.7 kPa
Isolated rat hearts [4]; [12]
  +dP/dtmax: 451 ± 32 kPa/s
  AF (aortic flow): 11.2 ± 0.8 mL/min
  CF (coronary flow): 18.1 ± 0.8 mL/min
  HR (heart rate): 279 ± 8 beats/min
  LVDP (left ventricular developed pressure): 11.5 ± 0.4 kPa
Isolated rat hearts [4]; [13]
  +dP/dtmax: 478 ± 44^a kPa/s
  AF (aortic flow): 12.0 ± 1.2 mL/min
  CF (coronary flow): 20.0 ± 1.4 mL/min
  HR (heart rate): 308 ± 8 beats/min
  LVDP (left ventricular developed pressure): 11.5 ± 0.5 kPa
Isolated rat hearts [4]; [14]
  +dP/dtmax: 472 ± 32 kPa/s
  AF (aortic flow): 13.3 ± 1.2 mL/min
  CF (coronary flow): 19.6 ± 1.2 mL/min
  HR (heart rate): 310 ± 9 beats/min
  LVDP (left ventricular developed pressure): 12.3 ± 0.7 kPa
Isolated rat hearts [4]; [15]
  +dP/dtmax: 463 ± 29 kPa/s
  AF (aortic flow): 11.4 ± 0.7 mL/min
  CF (coronary flow): 18.8 ± 0.7 mL/min
  HR (heart rate): 307 ± 7 beats/min
  LVDP (left ventricular developed pressure): 11.7 ± 0.6 kPa
Isolated rat hearts [4]; [16]
  +dP/dtmax: 536 ± 28^a kPa/s
  AF (aortic flow): 17.4 ± 0.8^a ml/min
  CF (coronary flow): 23.1 ± 1.1^a ml/min
  HR (heart rate): 298 ± 9 beats/min
  LVDP (left ventricular developed pressure): 13.5 ± 0.6^a kPa
Isolated rat hearts [4]; [17]
  +dP/dtmax: 544 ± 31^a kPa/s
  AF (aortic flow): 19.8 ± 1.5^a ml/min
  CF (coronary flow): 22.0 ± 1.1^a ml/min
  HR (heart rate): 297 ± 8 beats/min
  LVDP (left ventricular developed pressure): 14.1 ± 0.6^a kPa
Isolated rat hearts [4]; [18]
  +dP/dtmax: 519 ± 26^a kPa/s
  AF (aortic flow): 17.3 ± 1.1^a ml/min
  CF (coronary flow): 21.2 ± 1.1^a ml/min
  HR (heart rate): 295 ± 6 beats/min
  LVDP (left ventricular developed pressure): 13.2 ± 0.5^a kPa
Isolated rat hearts [4]; [19]
  +dP/dtmax: 557 ± 31^a kPa/s
  AF (aortic flow): 20.6 ± 1.3^a ml/min
  CF (coronary flow): 24.7 ± 1.5^a ml/min
  HR (heart rate): 291 ± 7 beats/min
  LVDP (left ventricular developed pressure): 14.1 ± 0.6^a kPa
Isolated rat hearts [4]; [20]
  +dP/dtmax: 594 ± 26^a kPa/s
  AF (aortic flow): 22.9 ± 2.1^a ml/min
  CF (coronary flow): 23.5 ± 0.8^a ml/min
  HR (heart rate): 286 ± 9 beats/min
  LVDP (left ventricular developed pressure): 15.3 ± 0.6^a kPa
Isolated rat hearts [4]; [21]
  +dP/dtmax: 568 ± 33^a kPa/s
  AF (aortic flow): 20.0 ± 1.8^a ml/min
  CF (coronary flow): 22.8 ± 1.8^a ml/min
  HR (heart rate): 289 ± 8 beats/min
  LVDP (left ventricular developed pressure): 14.6 ± 0.6^a kPa
Isolated rat hearts [4]; FK506 treatment, before ischemia, versus drug-free group
  change of preischemic HR, CF, AF, LVDP and +LVdP/dtmax (in words): No significant changes

## C[C@@H]1C(=O)O[C@H]2C[C@@]34[C@H]5C[C@@H](C(C)(C)C)[C@]36[C@@H](OC(=O)[C@@H]6O)O[C@@]4(C(=O)O5)[C@]21O [Ginkgolide A]
[1]
  PAFR antagonist activity (in words): PAFR antagonist

## C[C@@H]1C(=O)O[C@@H]2[C@H]1[C@@]13OC4OC(=O)[C@H](O)C45[C@H](C(C)(C)C)[C@@H](O)C(OC1=O)[C@]53[C@H]2O (some centres unmarked) [Ginkgolide M]
[1]
  PAFR antagonist activity (in words): PAFR antagonist activity

## COc1ccc(-c2cc(=O)c3c(O)cc(O)c(-c4cc(-c5cc(=O)c6c(O)cc(OC)cc6o5)ccc4OC)c3o2)cc1 [Sciadopitysin]
[5]
  cAMP phosphodiesterase inhibitory activity (in words): almost inactive

## O=c1cc(-c2ccc(O)c(O)c2)oc2cc(O[C@@H]3O[C@H](CO)[C@@H](O)[C@H](O)[C@H]3O)cc(O)c12 [luteolin-7-glucoside]
[6]
  cardioprotective effects: 186%

## Ginkgolide J
[1]
  PAFR antagonist activity (in words): PAFR antagonist activity

## ginkgolide C
[1]
  PAFR antagonist activity (in words): PAFR antagonist
